According to BindingDB's records for doi:10.1016/j.bmcl.2006.12.025 (Pharmacopeia Drug Discovery, 2007):
pIC50: −log10 of the molar value.

biological target: Prostacyclin receptor (Homo sapiens, UniProt P43119); test: IP Receptor Filter Binding Assay and cAMP Assay; details: pH 7.4; 22 °C
From the text: IP receptor binding activity was quantified via a filter binding assay measuring displacement of [3H]-Iloprost binding to human platelet membranes. Raw data were fit to the […] to calculate IC50 values. EC50/IC50 values were obtained from functional antagonism assay by measuring the inhibition of cAMP production induced by Iloprost in human erythroleukemia (HEL) cells using a Perkin-Elmer LANCETM cAMP detection kit.

Prostacyclin receptor, sequence (P43119 whole entry): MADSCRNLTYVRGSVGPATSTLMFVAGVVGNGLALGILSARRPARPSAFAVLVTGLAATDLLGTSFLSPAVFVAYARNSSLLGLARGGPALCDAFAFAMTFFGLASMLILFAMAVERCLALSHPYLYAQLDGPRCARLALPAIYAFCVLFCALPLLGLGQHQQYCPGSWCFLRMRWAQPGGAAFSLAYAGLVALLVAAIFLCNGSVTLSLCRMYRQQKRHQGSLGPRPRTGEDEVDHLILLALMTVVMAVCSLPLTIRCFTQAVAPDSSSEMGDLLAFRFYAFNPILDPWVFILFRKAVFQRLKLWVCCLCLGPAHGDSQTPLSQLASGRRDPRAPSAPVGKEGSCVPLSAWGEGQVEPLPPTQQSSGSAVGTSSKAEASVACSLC

Row | SMILES | pIC50
1 | CC(=O)Nc1cccc(-c2ccc(Cc3ocnc3C(=O)NCCc3ccccn3)cc2)c1 [5-{[4-(3-acetamidophenyl)phenyl]methyl}-N-[2-(pyridin-2-yl)ethyl]-1,3-oxazole-4-carboxamide] | 6.00
2 | CC(=O)Nc1cccc(-c2ccc(Cc3ocnc3C(=O)NCCc3cccnc3)cc2)c1 [5-{[4-(3-acetamidophenyl)phenyl]methyl}-N-[2-(pyridin-3-yl)ethyl]-1,3-oxazole-4-carboxamide] | 6.13
3 | CNC(=O)c1ncoc1Cc1ccc(-c2cccc(NC(C)=O)c2)cc1 [5-{[4-(3-acetamidophenyl)phenyl]methyl}-N-methyl-1,3-oxazole-4-carboxamide] | 5.48
4 | CC(=O)Nc1cccc(-c2ccc(Cc3ocnc3C(=O)NC(C)C)cc2)c1 [5-{[4-(3-acetamidophenyl)phenyl]methyl}-N-(propan-2-yl)-1,3-oxazole-4-carboxamide] | 5.45
5 | CC(=O)Nc1cccc(-c2ccc(Cc3ocnc3C(=O)NCCc3ccncc3)cc2)c1 [5-{[4-(3-acetamidophenyl)phenyl]methyl}-N-[2-(pyridin-4-yl)ethyl]-1,3-oxazole-4-carboxamide] | 6.32
6 | CC(=O)Nc1cccc(-c2ccc(Cc3ocnc3C(=O)N(C)CCc3ccccc3)cc2)c1 [5-{[4-(3-acetamidophenyl)phenyl]methyl}-N-methyl-N-(2-phenylethyl)-1,3-oxazole-4-carboxamide] | 5.67
7 | CC(=O)Nc1cccc(-c2ccc(Cc3ocnc3C(=O)N[C@H](Cc3ccccc3)C(=O)O)cc2)c1 [(2R)-2-[(5-{[4-(3-acetamidophenyl)phenyl]methyl}-1,3-oxazol-4-yl)formamido]-3-phenylpropanoic acid] | 6.08
8 | CC(=O)Nc1cccc(-c2ccc(Cc3ocnc3C(=O)N[C@H]3C[C@@H]3c3ccccc3)cc2)c1 [5-{[4-(3-acetamidophenyl)phenyl]methyl}-N-[(1S,2R)-2-phenylcyclopropyl]-1,3-oxazole-4-carboxamide] | 6.45
9 | CC(=O)Nc1cccc(-c2ccc(Cc3ocnc3C(=O)NCCN(C)C)cc2)c1 [N-[2-(dimethylamino)ethyl]-5-{[4-(3-acetamidophenyl)phenyl]methyl}-1,3-oxazole-4-carboxamide] | 5.48
10 | CC(=O)Nc1cccc(-c2ccc(Cc3ocnc3C(=O)N[C@@H](Cc3ccccc3)C(=O)O)cc2)c1 [(2S)-2-[(5-{[4-(3-acetamidophenyl)phenyl]methyl}-1,3-oxazol-4-yl)formamido]-3-phenylpropanoic acid] | 7.80

Second part, the molecule after the results:

Row | pIC50 | SMILES
11 | 7.18 | CC(=O)Nc1cccc(-c2ccc(Cc3ocnc3C(=O)NCc3ccccc3)cc2)c1 [N-benzyl-5-{[4-(3-acetamidophenyl)phenyl]methyl}-1,3-oxazole-4-carboxamide]
12 | 7.29 | CC(=O)Nc1cccc(-c2ccc(Cc3ocnc3C(=O)NC[C@H](C)c3ccccc3)cc2)c1 [5-{[4-(3-acetamidophenyl)phenyl]methyl}-N-[(2R)-2-phenylpropyl]-1,3-oxazole-4-carboxamide]
13 | 6.86 | CC(=O)Nc1cccc(-c2ccc(Cc3ocnc3C(=O)NCCc3ccccc3)cc2)c1 [5-{[4-(3-acetamidophenyl)phenyl]methyl}-N-(2-phenylethyl)-1,3-oxazole-4-carboxamide]
14 | 6.53 | CC(=O)Nc1cccc(-c2ccc(Cc3ocnc3C(=O)NC[C@@H](C)c3ccccc3)cc2)c1 [5-{[4-(3-acetamidophenyl)phenyl]methyl}-N-[(2S)-2-phenylpropyl]-1,3-oxazole-4-carboxamide]
15 | 6.08 | CC(=O)Nc1cccc(-c2ccc(Cc3ocnc3C(=O)Nc3ccccc3)cc2)c1 [5-{[4-(3-acetamidophenyl)phenyl]methyl}-N-phenyl-1,3-oxazole-4-carboxamide]
16 | 6.56 | CC(=O)Nc1cccc(-c2ccc(Cc3ocnc3C(=O)NC(C)c3ccccc3)cc2)c1 (racemic) [5-{[4-(3-acetamidophenyl)phenyl]methyl}-N-(1-phenylethyl)-1,3-oxazole-4-carboxamide]

same assay, conditions: pH 7.4; 22 °C; read-out: IC50

Row | pIC50 | SMILES
17 | 4.91 | CC(=O)Nc1cccc(-c2ccc(Cc3ocnc3C(=O)NC(C)C)cc2)c1 [5-{[4-(3-acetamidophenyl)phenyl]methyl}-N-(propan-2-yl)-1,3-oxazole-4-carboxamide]
